# Where “and” joins values, the source holds several entries; their conditions need not be identical. Equal values may be shown once.
# Assays:
# Experiment in all cases: area under concentration-response curve (viability) (AUC (a.u.)); higher = less active
# Details in all cases: 48 h
# CU-ACC2 = system: CU-ACC2
# Procedure, shortened: (§1)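 Three adrenocortical carcinoma cell lines were plated in 1,536-well plates at 500–1,000 cells/well in 5 µL medium, and 23 nL of each library compound was added at 11 concentrations. After 48 h, CellTiter-Glo was applied for 15 minutes at room temperature before luminescence was read. Each plate's signals were normalised to vehicle and empty-well controls. AC50 and area under the curve were taken from fitted concentration-response curves, with only inhibitory or non-responding curve classes retained.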
# CU-ACC1 = system: CU-ACC1
# Procedure, shortened: as §1
# NCI-H295R = system: NCI-H295R
# Procedure, shortened: as §1
Compound,area under concentration-response curve (CU-ACC2),area under concentration-response curve (CU-ACC1),area under concentration-response curve (NCI-H295R)
CNC(=O)[C@@H](NC(=O)[C@H](CC(C)C)[C@H](O)C(=O)NO)C(C)(C)C,615,513,563
COc1ccccc1[C@H](c1cccc2ccccc12)[C@@](C)(C#N)C(=O)N1CCC(c2cccc(C(F)(F)F)c2)CC1,665,566,587
CCOP(=O)(OCC)C(C)NC(=O)N(CCCl)N=O (centres undefined),540,488,510
CC(=O)N[C@H]1[C@H](O[C@@H]2c3ccc(c(Cl)c3)Oc3cc4cc(c3O[C@@H]3O[C@H](CO)[C@@H](O)[C@H](O)[C@H]3NC(=O)CCCCCCCC(C)C)Oc3ccc(cc3Cl)C[C@H]3NC(=O)[C@H](N)c5ccc(O)c(c5)Oc5cc(O)cc(c5)[C@H](NC3=O)C(=O)N[C@H]4C(=O)N[C@H]3C(=O)N[C@@H]2C(=O)N[C@@H](C(=O)O)c2cc(O)cc(O[C@H]4O[C@H](CO)[C@@H](O)[C@H](O)[C@@H]4O)c2-c2cc3ccc2O)O[C@H](CO)[C@@H](O)[C@@H]1O,593,492,551
COc1ccc(COc2cc3oc(=O)c4cc(C(C)O)ccc4c3cc2OC)cc1 (centres undefined),506,356,466
COc1cc2nccc(Oc3ccc(NC(=O)Nc4ccc(F)cc4F)c(F)c3)c2cc1OC,623,548,515
CCOc1ccccc1N/N=C1/C(=O)N(c2nc(-c3ccccc3)cs2)N=C1C,639,569,570
CC(C)(C)NCC(O)c1ccc(O)c(CO)c1 (centres undefined),598,504,567
C[C@H](Cc1ccc(O)c(O)c1)[C@@H](C)Cc1ccc(O)c(O)c1,565,496,532
COc1ccc([C@@H](O)[C@@H](C)Oc2ccc([C@H]3O[C@H](c4ccc(O[C@H](C)[C@H](O)c5ccc(OC)c(OC)c5)c(OC)c4)[C@H](C)[C@H]3C)cc2OC)cc1OC,575,269,479
CCCNC(=O)Nc1ccc(Oc2ncnc3cc(OC)c(OC)cc23)cc1Cl,383,332,400
O=C(O)CNC(=O)c1ncc(-c2cccc(Cl)c2)cc1O,568,486,516
CC(C(C)N1CC(=O)NC(=O)C1)N1CC(=O)NC(=O)C1 (centres undefined),605,488,538
O=C1NC(=O)/C(=C/c2ccc(-c3ccc(F)cc3O)o2)S1,611,580,575
CCCCCCCCCC(=O)N[C@@H](Cc1c[nH]c2ccccc12)C(=O)N[C@H](CC(N)=O)C(=O)N[C@@H](CC(=O)O)C(=O)N[C@@H]1C(=O)NCC(=O)N[C@@H](CCCN)C(=O)N[C@@H](CC(=O)O)C(=O)N[C@H](C)C(=O)N[C@@H](CC(=O)O)C(=O)NCC(=O)N[C@H](CO)C(=O)N[C@@H]([C@@H](C)CC(=O)O)C(=O)N[C@@H](CC(=O)c2ccccc2N)C(=O)O[C@@H]1C,606,485,496
COc1ccc(CCN2CCN(CCCc3ccccc3)CC2)cc1OC,627,541,562
CN(CCOc1ccc(C[C@H](Nc2ccccc2C(=O)c2ccccc2)C(=O)O)cc1)c1ccccn1,413,429 and 437,388 and 454
Cc1cc(/C=c2/sc3nc4ccccc4n3c2=O)c(C)n1-c1ccccc1,625,569,549
CC(Oc1ccc(O)cc1)(P(=O)(O)O)P(=O)(O)O,508,456,458
Cc1c(F)cc(C(=O)NC2CC2)cc1-c1ccc(C(=O)NCC(C)(C)C)cn1,427,389,394
NC/1=N/C2=C(N=C[N]2[C@H]3C[C@H](O)[C@@H](CO)C3=C)C(=O)N1,589,,521
CCC(=O)Nc1cccc(Oc2nc(Nc3ccc(N4CCN(C)CC4)cc3OC)ncc2Cl)c1,523,,465
